According to ChEMBL document CHEMBL2146459, “Potentiation of ribonuclease cytotoxicity by a poly(amidoamine) dendrimer” (Bioorg Med Chem Lett, 2011):
Active and inactive are the calls of the source. No cut-off for these calls is given here.

Experiments:
[1] = target: T1, Ribonuclease pancreatic (Bos taurus) (UniProt P61823); test: Binding affinity to bovine RNase A in PBS buffer assessed as melting temperature at 1 uM after 3 hrs by UV spectroscopy (reference value: 62.7 +/- 0.1 degC)
T1 sequence (whole entry): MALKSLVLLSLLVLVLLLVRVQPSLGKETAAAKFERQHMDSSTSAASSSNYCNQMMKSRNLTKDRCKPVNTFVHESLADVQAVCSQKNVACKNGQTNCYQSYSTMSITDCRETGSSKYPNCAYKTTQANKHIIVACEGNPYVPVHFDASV

[2] = target: T1, Ribonuclease pancreatic (Bos taurus); test: Binding affinity to bovine RNase A in PBS assessed as melting temperature at 10 uM after 3 hrs by UV spectroscopy (reference value: 62.7 +/- 0.1 degC)
[3] = target: T1, Ribonuclease pancreatic (Bos taurus); test: Induction of bovine RNaseA internalization in human K562 cells assessed as internalization count at 1 uM after 3 hrs by flow cytometry; assay type: cell-based
[4] = target: T1, Ribonuclease pancreatic (Bos taurus); test: Induction of bovine RNaseA internalization in human K562 cells assessed as internalization count at 10 uM after 3 hrs by flow cytometry; assay type: cell-based
[5] = target: T1, Ribonuclease pancreatic (Bos taurus); test: Effect on bovine RNase A ribonucleolytic activity assessed as kcat/KM ratio of 6-FAM-dArUdAdA-6-TAMRA at 1 uM by fluorescence assay
[6] = target: T1, Ribonuclease pancreatic (Bos taurus); test: Effect on bovine RNase A ribonucleolytic activity assessed as kcat/KM ratio of 6-FAM-dArUdAdA-6-TAMRA at 10 uM by fluorescence assay
Ribonuclease pancreatic = target: T2, Ribonuclease pancreatic (Bos taurus, UniProt P61823); test: Inhibition of bovine RNase A interaction to ribonuclease inhibitor protein after 30 mins by competition assay
T2 sequence (P61823 whole entry): T1 sequence (whole entry)

K562 [7] = test: Potentiation of bovine wild type RNase-A-induced cytotoxicity against human K562 cells assessed as incorporation of [methyl-3H]-thymidine into cellular DNA at 1 to 10 uM after 4 hrs by liquid scintillation counting; assay type: functional, cell-based
K562 [8] = test: Potentiation of bovine RNase-A G88R mutant-induced cytotoxicity against human K562 cells assessed as incorporation of [methyl-3H]-thymidine into cellular DNA at 10 uM after 4 hrs by liquid scintillation counting; assay type: functional
K562 [9] = test: Potentiation of bovine RNase-A DRNG mutant-induced cytotoxicity against human K562 cells assessed as incorporation of [methyl-3H]-thymidine into cellular DNA at 10 uM after 4 hrs by liquid scintillation counting; assay type: functional

Tm [1]: 62.8 °C
Tm [2]: 63.2 °C
Activity [3]: inactive
Activity [4]: inactive
Activity [5]: inactive
Activity [6]: inactive
Kd (Ribonuclease pancreatic): 3.1 µM
SMILES: NCCNC(=O)CCN(CCNC(=O)CCN(CCNC(=O)CCN(CCC(=O)NCCN(CCC(=O)NCCN(CCC(=O)NCCN)CCC(=O)NCCN)CCC(=O)NCCN(CCC(=O)NCCN)CCC(=O)NCCN)CCN(CCC(=O)NCCN(CCC(=O)NCCN(CCC(=O)NCCN)CCC(=O)NCCN)CCC(=O)NCCN(CCC(=O)NCCN)CCC(=O)NCCN)CCC(=O)NCCN(CCC(=O)NCCN(CCC(=O)NCCN)CCC(=O)NCCN)CCC(=O)NCCN(CCC(=O)NCCN)CCC(=O)NCCN)CCC(=O)NCCN(CCC(=O)NCCN)CCC(=O)NCCN)CCC(=O)NCCN [POLY(AMIDOAMINE)DENDRIMER]
Activity (K562 [7]): inactive
fold change (FC) (K562 [8]): 5
fold change (FC) (K562 [9]): 5
